This is an account of results in patent publication US7022843B1, “β,β′-dihydroxy meso-substituted chlorins, isobacteriochlorins, and bacteriochlorins” (priority 1999, dated 2006).

The test system of one data set is serum proteins. Conditions: normal dose used for PDT (3–5 mg/kg body weight); cited from earlier work.
The test system of data set [1] is L1210 cells. Description: Phototoxicity in L1210 cells, MTT viability assay. The format is cell-based. Conditions: phototoxicity. The procedure:
The above described compounds were tested in vitro for phototoxicity and dark toxicity in L1210 cells as described in the Example section below. Twenty four compounds which were tested for cytotoxicity are listed in Table 3 below along with BPD-MA.
(§1) Phototoxicity was determined with L11210 cells in the presence of the compound as follows: the L1210 cells were exposed to varying concentrations of the compounds in 96-well microtiter plates for one hour at 37° C. and 5% CO2. No fetal calf serum (FCS) was added at this time. The plate was then illuminated for one hour after which a 10% aqueous FCS solution was added to the wells. The plates were then returned to the CO2 incubator overnight. After incubation, the cells were assayed for viability using the MTT assay (Mossman, T. J. Immunol. Meth. 1983, 65, 55).

Data set [2] has as its system tumors. The settings on record: in sensitizing tumors; cited from earlier work.
Data set [3] relates to tumors. The settings on record: cited from earlier work.
The next data set concerns tumor. Conditions: in vivo; cited from earlier work.
Data set [4] concerns L1210 cells. The data set can be described thus: Dark cytotoxicity in L1210 cells (plates wrapped in aluminum foil). The format is cell-based. Conditions: for LD20dark: L1210 cells, absence of light. How it is done: The above compounds were also tested for dark toxicity. Dark toxicity refers to the toxicity of the drug to cells in the absence of light. This toxicity is, therefore, not due to singlet oxygen mediated cellular damage.
as §1
Dark cytotoxicity was determined while the plates were wrapped in aluminum foil while under the light source.

The mark [5] stands for this setting: L1210 cells, 1 h exposure without FCS, 1 h illumination, MTT.

Values joined by “and” are separate entries in the source; they are usually repeats but may differ in a detail not shown here. Equal entries are not always repeated.

For `CC1=C(CCC(=O)O)c2cc3[nH]c(cc4nc(cc5[nH]c(cc1n2)c(C)c5C(C)O)C(C)=C4C(C)O)c(C)c3CCC(=O)O` (stereo not shown) [hematoporphyrin], the “complexed by serum proteins” value in the data set with serum proteins is given as “at least 95%”.

For `C=Cc1c(C)c2cc3nc(cc4[nH]c(cc5nc(cc1[nH]2)C(C)=C5CCC(=O)O)c(CCC(=O)OC)c4C)C1(C)C3=CC=C(C(=O)OC)C1C(=O)OC` (stereo not shown) [BPDMA, reference compound], the LD50 was 0.026 µM in the data set on L1210 cells [1]; 0.026 M and 19 ng/mL in the data set with L1210 cells [1] (setting [5]); 19 ng/mL in the data set on L1210 cells [1] (L1210 cells, 1 h exposure without FCS, 1 h illumination, MTT, listed as BPD-MA). Moreover, the “times more potent than HpD” value with tumors [2] is reported as 70. Further, the “times more potent than Photofrin™” value in the data set with tumors [2] is 45.

`Oc1cccc(-c2c3nc(c(-c4cccc(O)c4)c4ccc([nH]4)c(-c4cccc(O)c4)c4nc(c(-c5cccc(O)c5)c5ccc2[nH]5)CC4)C=C3)c1` [Tetra(m-hydroxyphenyl)chlorin]: the LD50 with tumors [3] (in vivo bioassays) is 3 mg/kg. Moreover, in the data set on tumors [3] (in vivo), the “times more effective than HpD in destroying tumors” value is given as 25–30. Further, in the data set on tumor, the recurrence was 10%; the side effects result was “extended skin sensitivity, severe chest pains and loss of appetite”; the tumor necrosis is 90%.

`OC1c2nc(c(-c3c(F)c(F)c(F)c(F)c3F)c3ccc([nH]3)c(-c3c(F)c(F)c(F)c(F)c3F)c3nc(c(-c4c(F)c(F)c(F)c(F)c4F)c4ccc([nH]4)c2-c2c(F)c(F)c(F)c(F)c2F)C=C3)C1O` (stereo not shown) [Compound 9, TF5PC(OH)2]: the LD50 in the data set on L1210 cells [1] (setting [5]) is 1.79 M and 1800 ng/mL; with L1210 cells [1] (L1210 cells, Table 4) it was 100 ng/mL. Further, the LD50dark in the data set with L1210 cells [4] was 12000 ng/mL. In the data set on L1210 cells [4], the LD20dark came out at 5000 ng/mL.

Turning to `O=S(=O)(O)c1ccc(-c2c3nc(c(-c4ccc(S(=O)(=O)O)cc4)c4ccc([nH]4)c(-c4ccc(S(=O)(=O)O)cc4)c4nc(c(-c5ccc(S(=O)(=O)O)cc5)c5ccc2[nH]5)C(O)C4O)C=C3)cc1` (stereo not shown) [Compound 23, T(p-SO3H)PC(OH)2], the LD50 in the data set with L1210 cells [1] (setting [5]) was 1.11 M and 1000 ng/mL. For the same compound, the LD50 in the data set on L1210 cells [1] (L1210 cells, Table 4) is 1000 ng/mL. Besides, in the data set with L1210 cells [4], the LD50dark is given as >>20000 ng/mL and the LD20dark was greater than 20000 ng/mL.
